Laboratory results taken from US20100143438A1, “BIOMOLECULES” (University of Strathclyde, priority 2006, published 2010).

Test system: Fmoc-FRGD-PEGA surface tethered peptide (Fmoc-F↓RGD bond)
Assay: Enzymatic hydrolysis of PEGA surface tethered peptides analysed by HPLC
Format: biochemical
Protocol: Three proteolytic enzymes, chymotrypsin, thermolysin and proteinase K, that are known to cleave peptide bonds involving F amino acids in the P1 position were tested for their ability to selectively hydrolyse Fmoc-F↓RGD bond^15. […] Surfaces were incubated at 37° C. for 2 hours in enzyme solution (concentrations and activities are shown in Table 1) in phosphate buffer and the cleaved products were analysed by HPLC.
Surfaces were rinsed in a known volume (at least 4 ml) of a 50:50 mixture of acetonitrile (ACN) and water. The rinsing solution was kept and added to the enzyme solution that the surface was in. 1 ml of this solution was placed into an HPLC autosampler vial. The HPLC machine (manufactured by Dionex; California, USA) consisted of a P.680 HPLC pump joined to an ASI-100 Automated Sample Injector with a Dionex UVD17OU detector. The column was an EC 250/4.6 Nucleosil 100-5 C18, with an internal diameter of 4.6 mm and a column length of 250 mm containing particles of 5 μm in diameter. 100 μl was injected into the HPLC column at the start of each run and a buffer gradient run through the column, buffer A was 99.9% water and 0.1% TFA, buffer B was 99.9% ACN and 0.1% TFA. For quantification, three samples of each surface were produced and repeated three times.

[1] = 37° C., 2 hours in enzyme solution, 100% = 4.08 nmol maximum Fmoc-peptide hydrolysed, n=9

## Chymotrypsin
[1]
  Fmoc-F-OH (%): 42 ± 1.8%
  Fmoc-FR-OH (%): 7.5 ± 1.4%
HPLC
  cleavage and selectivity for Fmoc-F↓RGD versus Fmoc-FR↓GD: performing best
